According to patent publication US9695155B2, “Herbicidal substituted pyrimidinyloxy benzene compounds” (E. I. DU PONT DE NEMOURS AND COMPANY, priority 2013, dated 2017):

Legend:
[1] = test system: waterhemp_RES1 (ALS & Triazine resistant common waterhemp); test: Test E postemergence; assay type: in vivo, Amaranthus rudis
Procedure, shortened: (§1)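 Response was scored visually on a 0-100 scale (100 = complete control) versus controls after 14 to 21 days in the greenhouse. Test chemicals, formulated with surfactant in a non-phytotoxic solvent mixture, had been applied preemergence to seeds in silt loam soil or postemergence to 1- to 4-leaf plants in potting medium.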

[2] = test system: waterhemp_RES2 (ALS & HPPD resistant common waterhemp); test: Test E postemergence; assay type: in vivo, Amaranthus rudis
Procedure, shortened: as §1

waterhemp = test: Test E postemergence; assay type: in vivo, Amaranthus rudis
Procedure, shortened: as §1

sandbur = test: Test E postemergence; assay type: in vivo, Cenchrus echinatus
Procedure, shortened: as §1

arrowleaf sida = test: Test E postemergence; assay type: in vivo, Sida rhombifolia
Procedure, shortened: as §1

hairy beggarticks = test: Test E postemergence; assay type: in vivo, Bidens pilosa
Procedure, shortened: as §1

barnyardgrass = test: Test C flooded paddy test; assay type: in vivo, Echinochloa crus-galli; settings: Flood, scale 0 to 100 (0 no effect, 100 complete control), 13 to 15 days
Procedure, shortened: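 Flooded 3 cm over soil; compound into paddy water; depth kept constant. Greenhouse 13–15 d.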

[3] = Postemergence, 31 g ai/ha, scale 0 to 100
[4] = Postemergence, 62 g ai/ha, scale 0 to 100
[5] = Postemergence, 125 g ai/ha, scale 0 to 100
[6] = postemergence, 16 g ai/ha, scale 0 to 100, 0 no effect, 100 complete control
[7] = postemergence, 8 g ai/ha, scale 0 to 100, 0 no effect, 100 complete control

Row | Compound | Plant response rating, Waterhemp_RES1 [1, 3] | Plant response rating, Waterhemp_RES1 [1, 4] | Plant response rating, Waterhemp_RES1 [1, 5] | Plant response rating, Waterhemp_RES1 [1, 6] | Plant response rating, Waterhemp_RES2 [2, 3] | Plant response rating, Waterhemp_RES2 [2, 4] | Plant response rating, Waterhemp_RES2 [2, 5] | Plant response rating, Waterhemp_RES2 [2, 6] | Plant response rating, Waterhemp (waterhemp; [3]) | Plant response rating, Waterhemp (waterhemp; [4]) | Plant response rating, Waterhemp (waterhemp; [5]) | Plant response rating, Waterhemp (waterhemp; [6]) | Plant response rating, Sandbur (sandbur; [3]) | Plant response rating, Sandbur (sandbur; [4]) | Plant response rating, Sandbur (sandbur; [5]) | Plant response rating, Sandbur (sandbur; [6]) | Plant response rating, Arrowleaf Sida (arrowleaf sida; [3]) | Plant response rating, Arrowleaf Sida (arrowleaf sida; [4]) | Plant response rating, Arrowleaf Sida (arrowleaf sida; [5]) | Plant response rating, Arrowleaf Sida (arrowleaf sida; [6]) | other results
1 | Clc1cnc(Oc2cccc(Cl)c2-n2cc(I)cn2)nc1 [Compound 181] | 95 | 90 | 95 | 90 | 95 | 98 | 100 | 85 | 95 | 95 | 98 | 65 | 15 | 10 | 20 | 5 | 75 | 70 | 95 | 60 | Plant response rating, Beggarticks (hairy beggarticks; [3]): 40; Plant response rating, Beggarticks (hairy beggarticks; [4]): 50; Plant response rating, Beggarticks (hairy beggarticks; [5]): 60; Plant response rating, Beggarticks (hairy beggarticks; [6]): 40
2 | N#Cc1cccc(Oc2ncc(F)cn2)c1-n1cc(C(F)(F)F)cn1 [Compound 79, 3-[(5-fluoro-2-pyrimidinyl)oxy]-2-[4-(trifluoromethyl)-1H-pyrazol-1-yl]benzonitrile] | 60 | 75 | 100 | 40 | – | – | – | – | – | – | – | – | – | – | – | – | – | – | – | – | pest or weed control at 31 g/ha ([2]; Amaranthus tuberculatus, post-emergence, Postemergence, 31 g ai/ha, scale 0 to 100, read-out: Plant response rating, Waterhemp_RES2): 80%; pest or weed control at 62 g/ha ([2]; Amaranthus tuberculatus, post-emergence, Postemergence, 62 g ai/ha, scale 0 to 100, read-out: Plant response rating, Waterhemp_RES2): 90%; pest or weed control at 125 g/ha ([2]; Amaranthus tuberculatus, post-emergence, Postemergence, 125 g ai/ha, scale 0 to 100, read-out: Plant response rating, Waterhemp_RES2): 95%; pest or weed control at 16 g/ha ([2]; Amaranthus tuberculatus, post-emergence, postemergence, 16 g ai/ha, scale 0 to 100, 0 no effect, 100 complete control, read-out: Plant response rating, Waterhemp_RES2): 75%; pest or weed control at 31 g/ha (waterhemp; Amaranthus tuberculatus, post-emergence, Postemergence, 31 g ai/ha, scale 0 to 100, read-out: Plant response rating, Waterhemp): 90%; pest or weed control at 62 g/ha (waterhemp; Amaranthus tuberculatus, post-emergence, Postemergence, 62 g ai/ha, scale 0 to 100, read-out: Plant response rating, Waterhemp): 85%; pest or weed control at 125 g/ha (waterhemp; Amaranthus tuberculatus, post-emergence, Postemergence, 125 g ai/ha, scale 0 to 100, read-out: Plant response rating, Waterhemp): 100%; pest or weed control at 16 g/ha (waterhemp; Amaranthus tuberculatus, post-emergence, postemergence, 16 g ai/ha, scale 0 to 100, 0 no effect, 100 complete control, read-out: Plant response rating, Waterhemp): 70%; pest or weed control at 31 g/ha (sandbur; Cenchrus echinatus, post-emergence, Postemergence, 31 g ai/ha, scale 0 to 100, read-out: Plant response rating, Sandbur): 0%; pest or weed control at 62 g/ha (sandbur; Cenchrus echinatus, post-emergence, Postemergence, 62 g ai/ha, scale 0 to 100, read-out: Plant response rating, Sandbur): 0%; pest or weed control at 125 g/ha (sandbur; Cenchrus echinatus, post-emergence, Postemergence, 125 g ai/ha, scale 0 to 100, read-out: Plant response rating, Sandbur): 10%; pest or weed control at 16 g/ha (sandbur; Cenchrus echinatus, post-emergence, postemergence, 16 g ai/ha, scale 0 to 100, 0 no effect, 100 complete control, read-out: Plant response rating, Sandbur): 0%; pest or weed control at 31 g/ha (arrowleaf sida; Sida rhombifolia, post-emergence, Postemergence, 31 g ai/ha, scale 0 to 100, read-out: Plant response rating, Arrowleaf Sida): 75%; pest or weed control at 62 g/ha (arrowleaf sida; Sida rhombifolia, post-emergence, Postemergence, 62 g ai/ha, scale 0 to 100, read-out: Plant response rating, Arrowleaf Sida): 85%; pest or weed control at 125 g/ha (arrowleaf sida; Sida rhombifolia, post-emergence, Postemergence, 125 g ai/ha, scale 0 to 100, read-out: Plant response rating, Arrowleaf Sida): 98%; pest or weed control at 16 g/ha (arrowleaf sida; Sida rhombifolia, post-emergence, postemergence, 16 g ai/ha, scale 0 to 100, 0 no effect, 100 complete control, read-out: Plant response rating, Arrowleaf Sida): 65%; pest or weed control at 31 g/ha (hairy beggarticks; Bidens pilosa, post-emergence, Postemergence, 31 g ai/ha, scale 0 to 100, read-out: Plant response rating, Beggarticks): 50%; pest or weed control at 62 g/ha (hairy beggarticks; Bidens pilosa, post-emergence, Postemergence, 62 g ai/ha, scale 0 to 100, read-out: Plant response rating, Beggarticks): 75%; pest or weed control at 125 g/ha (hairy beggarticks; Bidens pilosa, post-emergence, Postemergence, 125 g ai/ha, scale 0 to 100, read-out: Plant response rating, Beggarticks): 80%; pest or weed control at 16 g/ha (hairy beggarticks; Bidens pilosa, post-emergence, postemergence, 16 g ai/ha, scale 0 to 100, 0 no effect, 100 complete control, read-out: Plant response rating, Beggarticks): 40%
3 | FC(F)(F)c1cnn(-c2c(Br)cccc2Oc2ncc(Cl)cn2)c1 [Compound 191] | 80 | 90 | 95 | 70 | 95 | 95 | 100 | 90 | 90 | 90 | 95 | 70 | 0 | 0 | 10 | 0 | 70 | 70 | 100 | 60 | Plant response rating, Barnyardgrass (barnyardgrass; 31 g ai/ha): 0; Plant response rating, Barnyardgrass (barnyardgrass; 62 g ai/ha): 0; Plant response rating, Barnyardgrass (barnyardgrass; 125 g ai/ha): 0; Plant response rating, Barnyardgrass (barnyardgrass; 250 g ai/ha): 20; Plant response rating, Waterhemp_RES1 [1, 7]: 50; Plant response rating, Waterhemp (waterhemp; [7]): 60; Plant response rating, Sandbur (sandbur; [7]): 0; Plant response rating, Arrowleaf Sida (arrowleaf sida; [7]): 50; Plant response rating, Beggarticks (hairy beggarticks; [3]): 40; Plant response rating, Beggarticks (hairy beggarticks; [4]): 50; Plant response rating, Beggarticks (hairy beggarticks; [5]): 50; Plant response rating, Beggarticks (hairy beggarticks; [7]): 10; Plant response rating, Beggarticks (hairy beggarticks; [6]): 20
4 | Clc1cnc(Oc2ccccc2-n2cc(Br)nn2)nc1 [Compound 223] | 80 | 70 | 95 | 60 | 80 | 80 | 95 | 75 | 70 | 85 | 98 | 50 | 0 | 0 | 0 | 0 | 70 | 80 | 90 | 60 | Plant response rating, Waterhemp_RES1 [1, 7]: 30; Plant response rating, Waterhemp (waterhemp; [7]): 60; Plant response rating, Sandbur (sandbur; [7]): 0; Plant response rating, Arrowleaf Sida (arrowleaf sida; [7]): 50; Plant response rating, Beggarticks (hairy beggarticks; [3]): 60; Plant response rating, Beggarticks (hairy beggarticks; [4]): 75; Plant response rating, Beggarticks (hairy beggarticks; [5]): 85; Plant response rating, Beggarticks (hairy beggarticks; [7]): 40; Plant response rating, Beggarticks (hairy beggarticks; [6]): 50
